# Reference: publication PMC12349723, “Computationally accelerated identification of P-glycoprotein inhibitors” (PLOS One, 2025)
# What was measured:
# [1] = SWISS-ADME computational analysis of chemical properties; details: predicted aqueous solubility compared to that observed in the laboratory
# Excerpt: Identifying P-gp inhibitors that are not transport substrates remains inherently challenging. To that end, computational tools such as the SWISS-ADME server attempt to use a molecule’s unique chemical and structural characteristics to predict whether it is likely to be a P-gp transport substrate. Our LC-MS/MS assays allowed us to retroactively test the validity of predictions from SWISS-ADME. […] Alternative identifiers for the molecules identified in this study are shown in S7 Table.
# S1 Table. Known P-gp Inhibitors and Predicted Chemical Properties. A non-exhaustive list of known P-gp inhibitors and their selected chemical properties ^[64, 65]. Clinical trial outcomes were adapted from ^[10, 11]. Compounds were evaluated using the SWISS-ADME server ^[54]. […] “Predicted P-gp Substrate” - predicted by SWISS-ADME to be a transport substrate of P-gp. “Known P-gp Substrate” – In addition to being P-gp inhibitors, these molecules are: known transport substrates of P-gp, known non-transport substrates of P-gp, unknown whether it is a transport substrate of P-gp ^[66-68]. If the molecule is designated in a specific generation of P-gp inhibitors - First Generation P-gp inhibitors, Second generation P-gp inhibitors, Third generation P-gp inhibitors.
# P-gp = molecular target: T1, P-gp (Homo sapiens, UniProt P08183); test: LC-MS/MS intracellular accumulation assay with or without tariquidar (P-gp transport substrate test) in DU145-TXR cells; type: in vitro ADME; details: for Intracellular accumulation (normalized ratio of compound to internal standard), Trial 1, + TQR / Intracellular accumulation (normalized ratio of compound to internal standard), Trial 2, + TQR / Intracellular accumulation (normalized ratio of compound to internal standard), Trial 1, - TQR / Intracellular accumulation (normalized ratio of compound to internal standard), Trial 2, - TQR / Intracellular accumulation (normalized ratio of compound to internal standard), Trial 3, + TQR / Intracellular accumulation (normalized ratio of compound to internal standard), Trial 3, - TQR / P-gp transport substrate assessment: DU145-TXR, 2.5 h; for Intracellular accumulation (normalized ratio of compound to internal standard), Trial 1, + TQR / Intracellular accumulation (normalized ratio of compound to internal standard), Trial 2, + TQR / Intracellular accumulation (normalized ratio of compound to internal standard), Trial 1, - TQR / Intracellular accumulation (normalized ratio of compound to internal standard), Trial 2, - TQR / Intracellular accumulation (normalized ratio of compound to internal standard), Trial 3, + TQR / Intracellular accumulation (normalized ratio of compound to internal standard), Trial 3, - TQR: 5 µM compound, mean ± SD, triplicate; for Intracellular accumulation (normalized ratio of compound to internal standard), Trial 1, + TQR / Intracellular accumulation (normalized ratio of compound to internal standard), Trial 2, + TQR / Intracellular accumulation (normalized ratio of compound to internal standard), Trial 3, + TQR: with 500 nM tariquidar; for Intracellular accumulation (normalized ratio of compound to internal standard), Trial 1, - TQR / Intracellular accumulation (normalized ratio of compound to internal standard), Trial 2, - TQR / Intracellular accumulation (normalized ratio of compound to internal standard), Trial 3, - TQR: without tariquidar; for P (- TQR vs + TQR), Trial 1 / P (- TQR vs + TQR), Trial 2 / P (- TQR vs + TQR), Trial 3: Student's T test of the mean; for P-gp transport substrate assessment: 5 µM compound with or without 500 nM tariquidar, LC-MS/MS; for Significance of accumulation with tariquidar, Trial 1 / Significance of accumulation with tariquidar, Trial 2: significant difference = likely P-gp transport substrate
# T1 construct: The MDR, P-gp overexpressing DU145-TXR cells were maintained under positive selection pressure; endogenous in cells; host or cells: DU145-TXR (paclitaxel-resistant sub-line of DU145 human prostate cancer cells)
# Procedure: DU145-TXR cells were seeded at 350,000 cells per well in 6-well plates in complete RPMI medium. […] A full sample of DAU was also prepared for quantitative analysis. […] Media was removed with a glass vacuum aspirator. Cells were re-suspended and washed in 2mL of ice-cold Hank’s Balanced Salt Solution (HBSS, Gibco), and spun again at 2400 rpm. Cell lysates were diluted in 600 µL of ice-cold HBSS, flash-frozen in liquid nitrogen, and stored at −80 °C until analysis. LC-MS/MS intracellular accumulation assays were performed in collaboration with the Pharmacology Core at the University of Texas Southwestern Medical Center (UTSW). […] This method allowed us to quantify the change – if any – in the relative amount of compound present in the samples when TQR was added. An increase in the relative amount of compound indicates enhanced intracellular retention that compound. […] The “Internal Standard” (IS) is a known substance added in a constant amount to each sample. The “Peak Area”, expressed as “counts”, describes the number of MS/MS spectra from the experimental compound and serves as a measure of its relative abundance. […] These values allow a comparison of the relative abundance of compound between the “- TQR” and “+ TQR” samples, and to test for statistically significant differences. LC-MS/MS quantification was performed as follows. Cell lysate was aliquoted into Eppendorf tubes. In contrast to [9], blank cell lysates were not spiked with varying concentrations of each compound to create a standard curve, since compound amounts were normalized to abundance of the internal standard. […] The supernatant was then transferred to an HPCL vial, and subsequently analyzed using LC-MS/MS using a Sciex 4000QTRAP mass spectrometer coupled to a Shimadzu Prominence LC. […] The column flow rate was 1.5 ml/min using an Agilent C18 XDB, 5 micron packing 50 × 4.6 mm column. […] A BSA standard curve was then prepared in water and mixed using the same ratio. […] The ratio of Analyte to Internal Standard was normalized to the lysate content for each individual sample. […] Statistical significance was determined using a Student’s T Test in GraphPad Prism. We aimed to identify P-gp inhibitors that are not transport substrates of the pump itself. […] To test these predictions in vitro, liquid chromatography with tandem mass spectrometry (LC-MS/MS) was used to assess the intracellular accumulation of experimental compounds as described in [9]. […] The relative intracellular accumulation of each experimental compound was then assessed using LC-MS/MS. […] The P-gp substrate and chemotherapeutic daunorubicin (DAU) was used as a positive control for P-gp-mediated transport.
# T1 sequence (P08183 whole entry): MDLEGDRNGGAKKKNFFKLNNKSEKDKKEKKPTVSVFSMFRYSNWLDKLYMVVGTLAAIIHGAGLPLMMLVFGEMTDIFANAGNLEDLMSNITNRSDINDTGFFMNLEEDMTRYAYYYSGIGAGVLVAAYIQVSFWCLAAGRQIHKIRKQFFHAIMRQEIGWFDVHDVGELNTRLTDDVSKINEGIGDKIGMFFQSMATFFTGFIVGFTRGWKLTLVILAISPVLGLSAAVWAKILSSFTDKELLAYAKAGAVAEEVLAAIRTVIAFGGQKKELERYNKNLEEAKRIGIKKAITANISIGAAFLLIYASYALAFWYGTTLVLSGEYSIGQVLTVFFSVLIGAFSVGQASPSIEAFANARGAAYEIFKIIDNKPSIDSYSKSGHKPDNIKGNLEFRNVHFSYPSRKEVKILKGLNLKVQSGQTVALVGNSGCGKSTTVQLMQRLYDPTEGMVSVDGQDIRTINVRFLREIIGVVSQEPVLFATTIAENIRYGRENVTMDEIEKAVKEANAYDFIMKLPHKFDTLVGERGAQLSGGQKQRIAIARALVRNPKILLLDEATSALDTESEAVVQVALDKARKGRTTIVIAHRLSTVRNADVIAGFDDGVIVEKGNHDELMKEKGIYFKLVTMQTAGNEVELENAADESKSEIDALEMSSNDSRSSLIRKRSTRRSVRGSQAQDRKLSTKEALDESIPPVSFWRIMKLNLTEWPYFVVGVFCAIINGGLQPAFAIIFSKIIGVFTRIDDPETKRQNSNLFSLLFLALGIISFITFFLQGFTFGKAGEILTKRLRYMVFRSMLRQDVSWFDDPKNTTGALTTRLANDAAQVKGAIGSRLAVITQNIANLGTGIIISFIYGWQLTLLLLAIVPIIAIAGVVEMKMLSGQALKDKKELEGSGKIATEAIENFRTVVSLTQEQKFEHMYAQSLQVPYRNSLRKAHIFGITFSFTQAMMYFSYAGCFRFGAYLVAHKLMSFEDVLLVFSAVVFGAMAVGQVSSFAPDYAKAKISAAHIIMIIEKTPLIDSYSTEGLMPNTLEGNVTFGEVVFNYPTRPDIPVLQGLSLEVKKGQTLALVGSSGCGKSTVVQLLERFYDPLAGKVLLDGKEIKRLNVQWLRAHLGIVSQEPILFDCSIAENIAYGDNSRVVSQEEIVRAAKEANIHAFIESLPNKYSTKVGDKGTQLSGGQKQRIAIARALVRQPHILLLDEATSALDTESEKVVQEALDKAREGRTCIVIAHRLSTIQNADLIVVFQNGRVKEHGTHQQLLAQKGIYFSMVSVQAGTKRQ
SMILES,Correct Water Solubility Prediction? [1],"Intracellular accumulation (normalized ratio of compound to internal standard), Trial 1, + TQR (P-gp)","Intracellular accumulation (normalized ratio of compound to internal standard), Trial 2, + TQR (P-gp)","Intracellular accumulation (normalized ratio of compound to internal standard), Trial 1, - TQR (P-gp)","Intracellular accumulation (normalized ratio of compound to internal standard), Trial 2, - TQR (P-gp)","P (- TQR vs + TQR), Trial 1 (P-gp)","P (- TQR vs + TQR), Trial 2 (P-gp)","Intracellular accumulation (normalized ratio of compound to internal standard), Trial 3, + TQR (P-gp)","Intracellular accumulation (normalized ratio of compound to internal standard), Trial 3, - TQR (P-gp)","P (- TQR vs + TQR), Trial 3 (P-gp)",P-gp transport substrate assessment (P-gp),"Significance of accumulation with tariquidar, Trial 1 (P-gp)","Significance of accumulation with tariquidar, Trial 2 (P-gp)"
"Cn1cnnc1SCc1c(C(=O)O)nnn1-c1nonc1N [Compound 59, Cn1cnnc1SCc1c(nnn1-c1nonc1N)C(O)=O]",Yes,,,,,,,,,,,,
"Nc1nonc1-n1nnc(C(=O)N/N=C/c2c3ccccc3cc3ccccc23)c1COc1ccc(F)cc1 [Compound 60, Nc1nonc1-n1nnc(C(=O)N\N=C\c2c3ccccc3cc3ccccc23)c1COc1ccc(F)cc1]",No,0.282 ± 0.010,0.250 ± 0.003,0.231 ± 0.165,0.250 ± 0.003,0.6,> 1,,,,,,
"CCN1CCN(Cc2c(C(=O)N/N=C3/C(=O)N(C)c4ccccc43)nnn2-c2nonc2N)CC1 [Compound 61, CCN1CCN(Cc2c(nnn2-c2nonc2N)C(=O)N\N=C2\C(=O)N(C)c3ccccc23)CC1]",No,0.076 ± 0.001,0.027 ± 0.011,0.023 ± 0.002,0.016 ± 0.006,2 x 10^-6,0.2,0.126 ± 0.010,0.021 ± 0.004,0.0001,,,
"O=C(c1cc2ccccc2[nH]1)N1CCN(S(=O)(=O)c2cccc3nonc23)CC1 [Compound 66, O=C(N1CCN(CC1)S(=O)(=O)c1cccc2nonc12)c1cc2ccccc2[nH]1]",Yes,0.833 ± 0.124,0.036 ± 0.005,0.747 ± 0.096,0.040 ± 0.001,0.4,0.2,0.140 ± 0.029,0.170 ± 0.039,0.3,,,
"O=C(c1nc(-c2ccc3cc[nH]c3c2)no1)N1CCN(c2nsc3ccccc23)CC1 [Compound 70, O=C(N1CCN(CC1)c1nsc2ccccc12)c1nc(no1)-c1ccc2cc[nH]c2c1]",Yes,0.93 ± 0.07,0.55 ± 0.15,0.93 ± 0.15,0.56 ± 0.11,> 1,0.9,,,,unlikely to be transport substrates of P-gp,N.S. (P > 0.05 = not significant (N.S.)),N.S. (P > 0.05 = not significant (N.S.))
"COc1ccc(OC)c(NC(=O)c2nnn(-c3ccc4noc(-c5ccccc5)c4c3)c2C)c1 [Compound 71, COc1ccc(OC)c(NC(=O)c2nnn(c2C)-c2ccc3noc(-c4ccccc4)c3c2)c1]",Yes,0.067 ± 0.005,0.091 ± 0.043,0.085 ± 0.013,0.071 ± 0.009,0.09,0.5,,,,,,
"Cc1onc(-c2ccccc2)c1-c1nnc(Cn2cnc3c(oc4ccccc43)c2=O)o1 [Compound 78, Cc1onc(c1-c1nnc(Cn2cnc3c4ccccc4oc3c2=O)o1)-c1ccccc1]",Yes,0.001 ± 0.000,0.001 ± 0.000,0.001 ± 0.000,0.001 ± 0.000,,,,,,unlikely to be transport substrates of P-gp,,
"NS(=O)(=O)c1cccc(NC(=O)CSc2nnnn2C2CC2)c1 [Compound 89, NS(=O)(=O)c1cccc(NC(=O)CSc2nnnn2C2CC2)c1]",Yes,,,,,,,,,,,,
"O=S(=O)(CCSc1nnc(-c2ccccc2)c2ccccc12)c1ccccc1 [Compound 96, O=S(=O)(CCSc1nnc(-c2ccccc2)c2ccccc12)c1ccccc1]",No,0.092 ± 0.036,0.163 ± 0.032,0.087 ± 0.009,0.121 ± 0.005,0.8,0.09,,,,unlikely to be transport substrates of P-gp,N.S. (P > 0.05 = not significant (N.S.)),N.S. (P > 0.05 = not significant (N.S.))
"O=S(=O)(Cc1nc2ccccc2n1CC(O)c1ccc(Cl)cc1)c1ccccc1 (stereo not drawn) [Compound 97, OC(Cn1c(CS(=O)(=O)c2ccccc2)nc2ccccc12)c1ccc(Cl)cc1]",Yes,0.08 ± 0.03,0.10 ± 0.02,0.07 ± 0.02,0.10 ± 0.02,0.7,> 1,,,,unlikely to be transport substrates of P-gp,N.S. (P > 0.05 = not significant (N.S.)),N.S. (P > 0.05 = not significant (N.S.))
